Data on 9 compounds can be found in PubChem BioAssay (NCI).

Several values for one entry are separate records, joined by “and”; a condition that tells them apart may be missing. Identical values can stand only once.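 Assay format: 96-well plates, 48-hour exposure. Here, GI50 denotes the concentration required for 50% inhibition of growth. The concentration for full growth arrest is given as TGI.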 Some results are limits rather than exact numbers.

Test systems include NCI-H522 lung; SR leukemia; OVCAR-3 ovarian; IGROV1 ovarian; SK-OV-3 ovarian; OVCAR-8 ovarian; TK-10 renal; NCI/ADR-RES ovarian.
What all share (test): NCI-60 cell line screen, 48 h

Consider `C#Cc1cccc(Nc2ncnc3ccc(-c4cnc(N)nc4)cc23)c1`, for which the GI50 with NCI-H522 lung was 2.11 µM; with SR leukemia it was 2.58 µM; in the test on OVCAR-3 ovarian it was 1.93 µM; in the test with IGROV1 ovarian it was 0.183 µM; in the test with SK-OV-3 ovarian it was 1.53 µM; in the test with OVCAR-8 ovarian, 3.69 µM. Further, the GI50 was 0.286 µM in the test on TK-10 renal and 4.09 µM in the test with NCI/ADR-RES ovarian. Moreover, the TGI was 11.8 µM with NCI-H522 lung; over 100 µM in the test with SR leukemia; 10.5 µM with OVCAR-3 ovarian; 2.26 µM with IGROV1 ovarian; 4.74 µM in the test on SK-OV-3 ovarian; 33.1 µM with OVCAR-8 ovarian. Further, the values for the TGI with TK-10 renal and in the test on NCI/ADR-RES ovarian were 3.2 µM and 36.4 µM, respectively.
As for `O=C(Nc1cccc(-n2ccc3c(NC(=O)c4ccccc4)nccc32)c1)c1ccc(Cl)c(Cl)c1`, the GI50 is 0.0786 µM in the test on NCI-H522 lung; 0.0408 µM in the test with SR leukemia; 0.0413 µM in the test with OVCAR-3 ovarian; 0.25 µM in the test with IGROV1 ovarian; 0.0956 µM with SK-OV-3 ovarian; 0.274 µM in the test with OVCAR-8 ovarian. Also, the GI50 in the test with TK-10 renal was 0.865 µM; in the test on NCI/ADR-RES ovarian, 0.0865 µM. Further, the TGI with NCI-H522 lung is 1.22 µM; in the test on OVCAR-3 ovarian, 0.162 µM; in the test on IGROV1 ovarian it was 1.9 µM; in the test with SK-OV-3 ovarian, 1.1 µM; in the test on OVCAR-8 ovarian, 1.86 µM; with TK-10 renal, 2.28 µM. Moreover, the TGI with NCI/ADR-RES ovarian stood at 0.38 µM.
As to `CC[C@H](C)[C@H](NC(=O)[C@H]1CCCCN1C)C(=O)N(C)[C@H](C[C@@H](OC(C)=O)c1nc(C(=O)NC23C4C5C2C2C3C4C52C(=O)OC)cs1)C(C)C` (stereo partly drawn), the GI50 with NCI-H522 lung is 0.000331 µM and < 0.0025 µM; with OVCAR-3 ovarian, 0.000489 µM and < 0.0025 µM; in the test with IGROV1 ovarian, 0.00242 µM and 0.0025 µM; in the test on SK-OV-3 ovarian it was 0.0102 µM and 0.0025 µM; in the test with OVCAR-8 ovarian, 0.00204 µM and 0.0025 µM; in the test with TK-10 renal, 0.00424 µM. Also, the GI50 in the test with NCI/ADR-RES ovarian is 0.0676 µM. For the same compound, the TGI was 5.98 µM in the test on SR leukemia, 20.1 µM in the test with IGROV1 ovarian, over 25 µM with SK-OV-3 ovarian and over 25 µM with OVCAR-8 ovarian.
Regarding `O=C(C(=O)c1cccnc1)c1cccnc1`, the GI50 in the test on NCI-H522 lung, with SR leukemia, in the test with OVCAR-3 ovarian, with IGROV1 ovarian, in the test on SK-OV-3 ovarian and in the test on OVCAR-8 ovarian was over 100 µM each time. Besides, the GI50 in the test with TK-10 renal and with NCI/ADR-RES ovarian was over 100 µM throughout. Besides, the TGI with NCI-H522 lung, in the test on SR leukemia, in the test with OVCAR-3 ovarian, in the test on IGROV1 ovarian, in the test on SK-OV-3 ovarian and in the test with OVCAR-8 ovarian was over 100 µM in each case. Besides, the TGI with TK-10 renal and in the test with NCI/ADR-RES ovarian was over 100 µM throughout.
In the case of `O=c1[nH][nH]c(=O)c2c(O)c(-c3ccccc3)ncc12`, the GI50 is 42.3 µM and 70.2 µM with NCI-H522 lung; 39.6 µM and 118 µM in the test with SR leukemia; 27.6 µM and 84 µM in the test on OVCAR-3 ovarian; 247 µM in the test with IGROV1 ovarian; 27.8 µM and 120 µM in the test with SK-OV-3 ovarian; 37 µM and 64.6 µM with OVCAR-8 ovarian. The GI50 in the test on TK-10 renal was 57 µM and 153 µM; in the test on NCI/ADR-RES ovarian, 36.7 µM and 73.2 µM. Further, the TGI is 376 µM in the test on NCI-H522 lung; 554 µM in the test on SR leukemia; 84.2 µM and 468 µM in the test with OVCAR-3 ovarian; 835 µM with IGROV1 ovarian; 93.3 µM and 488 µM in the test with SK-OV-3 ovarian; 649 µM in the test with OVCAR-8 ovarian. Besides, the TGI in the test on TK-10 renal worked out at 462 µM; in the test with NCI/ADR-RES ovarian it was 586 µM.
Take `Cc1cnc(-c2ccc(-c3ccc(NC(=O)Nc4cccc(C(F)(F)F)c4)cc3F)c3c2C(=O)NC3)[nH]1`: the GI50 in the test with NCI-H522 lung is 15.4 µM; in the test with SR leukemia it was 0.0862 µM; with OVCAR-3 ovarian, 14.4 µM; in the test with IGROV1 ovarian, 1.97 µM; in the test on SK-OV-3 ovarian, 6.97 µM; in the test on OVCAR-8 ovarian, 14.6 µM. In addition, the GI50 was 15.5 µM in the test on TK-10 renal and 31.4 µM in the test on NCI/ADR-RES ovarian. In addition, the TGI in the test on NCI-H522 lung is 42.7 µM; in the test with SR leukemia, over 59.9 µM; in the test on OVCAR-3 ovarian, 36.7 µM; in the test with IGROV1 ovarian it was 32.2 µM; in the test with SK-OV-3 ovarian it was 39.7 µM; in the test with OVCAR-8 ovarian, over 57.8 µM. Besides, the TGI with TK-10 renal is over 58.5 µM; in the test with NCI/ADR-RES ovarian, over 100 µM.
`CCN(CC)CCNc1ccc(N=Nc2cnc3ccccc3c2)c2ccccc12`: the GI50 with NCI-H522 lung was 1.91 µM; in the test on SR leukemia, 0.59 µM; in the test with OVCAR-3 ovarian it was 1.78 µM; with IGROV1 ovarian it was 1.67 µM; with SK-OV-3 ovarian, 1.72 µM; with OVCAR-8 ovarian, 2.09 µM. Also, the GI50 with TK-10 renal is 2.1 µM; in the test with NCI/ADR-RES ovarian, 2.29 µM. Also, the TGI in the test with NCI-H522 lung amounted to 3.54 µM; in the test on SR leukemia it was 2.08 µM; with OVCAR-3 ovarian it was 3.43 µM; in the test with IGROV1 ovarian, 3.77 µM; in the test with SK-OV-3 ovarian, 3.2 µM; in the test on OVCAR-8 ovarian, 4.19 µM. Also, the TGI in the test on TK-10 renal came out at 3.87 µM; with NCI/ADR-RES ovarian, 5.15 µM.
With `Fc1ccc(-c2c(-c3ccncc3)[nH]c3cccnc23)cc1`, the GI50 is over 19.8 µM in the test with NCI-H522 lung; over 18.9 µM with SR leukemia; over 22.2 µM in the test on OVCAR-3 ovarian; 8.45 µM in the test with IGROV1 ovarian; 10.6 µM in the test on SK-OV-3 ovarian; over 25 µM in the test on OVCAR-8 ovarian. In addition, the GI50 is 3.02 µM in the test with TK-10 renal and over 25 µM in the test with NCI/ADR-RES ovarian. Besides, the TGI in the test with NCI-H522 lung, in the test on SR leukemia, with OVCAR-3 ovarian, in the test on IGROV1 ovarian, in the test on SK-OV-3 ovarian and with OVCAR-8 ovarian was over 25 µM throughout. For the same compound, the TGI in the test with TK-10 renal and in the test on NCI/ADR-RES ovarian was over 25 µM each time.
As for `COc1ccc2c(c1)C(=O)/C(=C/c1cccc(OCC(=O)c3ccc([N+](=O)[O-])cc3)c1)CO2`, the GI50 in the test with NCI-H522 lung was 3.5 µM; with SR leukemia, 1.15 µM; in the test with OVCAR-3 ovarian it was 1.94 µM; in the test on IGROV1 ovarian, 1.48 µM; in the test with SK-OV-3 ovarian, 10.5 µM; in the test on OVCAR-8 ovarian it was 2.85 µM. The GI50 is 2.97 µM with TK-10 renal and 2.03 µM in the test on NCI/ADR-RES ovarian. The TGI with NCI-H522 lung amounted to 9.41 µM; in the test on SR leukemia, 12.9 µM; in the test on OVCAR-3 ovarian, 3.72 µM; in the test on IGROV1 ovarian, 3.86 µM; in the test with SK-OV-3 ovarian it was 23 µM; in the test on OVCAR-8 ovarian, 9.66 µM. The TGI with TK-10 renal was determined as 7.49 µM; in the test on NCI/ADR-RES ovarian, 5.02 µM.
